What all share (assay): Synergistic antimicrobial activity as MIC, 96-well microplate, optical density at 620 nm
What all share (assay type): cell-based

Assay [1] relates to Enterococcus faecalis ATCC 33186. An excerpt: (§1) 1] with: • MIC of A with B: minimum concentration of product A in the combination A+B which makes it possible to obtain an inhibitory effect; • MIC of B with A: minimum concentration of product B in the combination A+B which makes it possible to obtain an inhibitory effect; • MIC of A: minimum inhibitory concentration of product A alone; • MIC of B: minimum inhibitory concentration of product B alone. This formula was described for the first time in the article by F. C. Kull, P. C. Eisman, H. D. Sylwestrowka, and R. L. Mayer, Applied Microbiology 9:538-541, 1961.
The microbial strain Enterococcus faecalis ATCC 33186 and a double-concentration BHI (Brain Heart Infusion) broth liquid culture medium were used.
(§2) A 96-well microplate at an incubation temperature of 32.5° C. is used.
(§3) The incubation time of the microplate is: • from 24 to 30 h under aerobic conditions for microbial Aspergillus niger ATCC 6275; • from 18 to 24 h under aerobic conditions for Candida albicans ATCC 10231, Pseudomonas aeruginosa ATCC 9027 and Staphylococcus aureus ATCC 6538; • from 24 to 48 h under aerobic conditions for Enterococcus faecalis ATCC 33186. Tests
(§4) A 10% (weight/volume) stock solution was prepared by mixing 1 g of compound in 9 ml of aqueous 1‰ agar solution. Successive dilutions were made with the 1‰ agar solution.
(§5) 50 μl of each of the daughter solutions obtained containing compound A or B are added to the microplate wells. 100 μl of Sabouraud liquid nutrient broth inoculated at double concentration with the Aspergillus niger strain and 50 μl of aqueous 1‰ agar solution are also added thereto.
(§6) 50 μl of each of the daughter solutions obtained containing compound A and 50 μl of each of the daughter solutions obtained containing compound B are added to the microplate wells. 100 μl of Sabouraud liquid nutrient broth inoculated at double concentration with the strain Aspergillus niger are also added thereto.
(§7) A positive microbial growth control was also prepared. The positive microbial growth control corresponds to a mixture of 100 μl of aqueous 1‰ agar solution with 100 μl of Sabouraud liquid nutrient broth inoculated at double concentration with the strain Aspergillus niger in the absence of compounds A and B.
(§8) An absorbance control was performed in parallel on compounds A and B alone. This control corresponds to 100 μl of double concentration sterile Sabouraud liquid nutrient broth+100 μl of double concentration compound A or B.
(§9) In the three cases (absorbance control, growth control and test), the final volume present in each of the microplate wells is 200 μl.
(§10) The test as described above (tests, absorbance control and growth control) was performed again to test the combination A+B on the following strains Enterococcus faecalis, Staphylococcus aureus, Pseudomonas aeruginosa, Candida albicans, where appropriate.

The subject of assay [2] is Candida albicans ATCC 10231.
Excerpt: as §1
(§11) When the FIC index value is less than or equal to 1, it is considered that the combination of test compounds has a synergistic effect.
The microbial strain Candida albicans ATCC 10231, and a double-concentration Sabouraud broth liquid culture medium were used (i.e. a mixture of 5 g of Phytagel+0.6 g Tween 40+60 g of Sabouraud broth).
as §2, §3, §4, §5, §6, §7, §8, §9, §10

In assay [3] the test system is Staphylococcus aureus ATCC 6538.
Excerpt: as §1, §11
The microbial strain Staphylococcus aureus ATCC 6538 and a double-concentration nutrient broth liquid culture medium were used.
as §2, §3, §4, §5, §6, §7, §8, §9
(§12) In the two cases (test and control), the inoculum represents the concentration of the Aspergillus niger strain present in the final volume of the wells (200 μl) and is between 2 and 6×10^5 cfu/ml of Aspergillus niger.
as §10
The following results were obtained with the compound B1=trisodium salt of ethylenediaminedisuccinic acid (as an aqueous solution at 30% by weight): sold under the name Natrlquest E30 by the company Innospec Active Chemicals.

Assay [4] has as its system Aspergillus niger ATCC 6275.
Excerpt: as §1
The microbial strain Aspergillus niger ATCC 6275, and a double-concentration Sabouraud broth liquid culture medium supplemented with polyoxyethylenated (20 OE) sorbitan monopalmitate (Tween 40 from Croda) and Phytagel© BioReagent were used (i.e. a mixture of 5 g of Phytagel+0.6 g of Tween 40+60 g of Sabouraud broth).
as §2, §3, §4, §5, §6, §7, §8, §9, §12

Where [5] appears, read: first concentration with growth <= 25%.
Where [6] appears, read: 0.0625% A alone (active material weight %).

In the case of `O=C([O-])CNCO.[Na+]` [B4, sodium hydroxymethylglycinate], the microbial growth percentage in assay [1] (0.005% B4 alone) is recorded as 32%; in assay [1] (0.01% B4 alone) it was 11%. Moreover, the “% MIC of B4 alone” value in assay [1] (setting [5]) is recorded as 0.1%.
For `CCCCCC1C(O)CCC1CC(=O)[O-].[Na+]` (stereo not drawn) [B2, sodium salt of 3-hydroxy-2-pentylcyclopentaneacetic acid], the microbial growth percentage amounted to 43% in assay [2] (0.34% B2 alone) and 6% in assay [2] (0.68% B2 alone). In addition, the “% MIC of B2 alone” value in assay [2] (setting [5]) worked out at 0.68%.
With `O=C([O-])C[C@H](NCCN[C@@H](CC(=O)[O-])C(=O)O)C(=O)[O-].[Na+].[Na+].[Na+]` [B1, trisodium salt of ethylenediaminedisuccinic acid], the microbial growth percentage in assay [3] (0.0375% B1 alone) was found to be 97%; in assay [3] (0.075% B1 alone), 80%; in assay [3] (0.15% B1 alone), 66%; in assay [3] (0.3% B1 alone) it was 37%; in assay [3] (0.6% B1 alone), 1%. Further, the “% MIC of B1 alone” value in assay [3] (setting [5]) stood at 0.6%.
With `CCOc1cc(CCC(C)=O)ccc1O` [A, 4-(3-ethoxy-4-hydroxyphenyl)butan-2-one], the microbial growth percentage was 31% in assay [1] (setting [6]); 36% in assay [1] (0.125% A alone); 39% in assay [1] (0.25% A alone); −9% in assay [1] (0.5% A alone); 76% in assay [3] (setting [6]); 72% in assay [3] (0.125% A alone). The microbial growth percentage in assay [3] (0.25% A alone) is given as 71%; in assay [3] (0.5% A alone), 40%; in assay [3] (1% A alone), −23%; in assay [2] (setting [6]), 76%; in assay [2] (0.125% A alone), 64%; in assay [2] (0.25% A alone) it was 36%. For the same compound, the microbial growth percentage in assay [2] (0.5% A alone) is on record as 5%; in assay [4] (0.025% A alone (weight %)), 44%; in assay [4] (0.05% A alone), 32%; in assay [4] (0.1% A alone) it was 13%. In assay [1] (setting [5]), the “MIC of product alone” value was 0.5%. The “% MIC of A alone” value is recorded as 1% in assay [3] (setting [5]), 0.5% in assay [2] (setting [5]) and 0.1% in assay [4] (setting [5]).
Consider silver citrate hydrate [B3], for which the microbial growth percentage is given as 47% in assay [4] (0.025% B3 alone), 40% in assay [4] (0.05% B3 alone) and 9% in assay [4] (0.1% B3 alone). The “% MIC of B3 alone” value in assay [4] (setting [5]) was 0.1%.

Source of the values: patent publication US12256733B2, “Antimicrobial mixture containing 4-(3-ethoxy-4-hydroxyphenyl)butan-2-one and an acid or silver-based compound, and cosmetic composition containing same” (L'OREAL, priority 2018, dated 2025).
